Results as given in patent publication US9833497B2, “Human originated EGF domain proteins and use of the same” (CHENGDU SOURCEBIO LIMITED-LIABILITY COMPANY, priority 2013, dated 2017).

How the values were obtained:
Type in all cases: cell-based
[1] = test system: Enterobacter cloacae; experiment: MIC against Gram-negative bacteria: Enterobacter cloacae
How it was run: (§1)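 Purified recombinant human EGF domain proteins are tested by broth dilution in LB against a 5×10^5 CFU/mL inoculum, with two-fold serial dilutions run in triplicate. Plates are incubated at 37° C with shaking, and the MIC is read as the lowest protein concentration without growth.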

[2] = test system: Serratia marcescens; experiment: MIC against Gram-negative bacteria: Serratia marcescens
How it was run: as §1

[3] = test system: E. coli BL21; experiment: MIC against Gram-negative bacteria: E. coli BL21
How it was run: as §1

[4] = test system: Pseudomonas aeruginosa; experiment: MIC against Gram-negative bacteria: Pseudomonas aeruginosa
How it was run: as §1

[5] = test system: E. coli DH5α; experiment: Antibacterial activity: MIC and growth curve against E. coli DH5α in 96-well plate; conditions: minimal inhibitory concentration against E. coli DH5α; 96-well plate, 5×10^5 CFU/mL, 37° C., judged after 8 h
How it was run: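 Log-phase DH5α (OD600 about 0.5, 37° C, 185 rpm in LB) was pelleted, resuspended in fresh LB and seeded at 5×10^5 CFU/mL with recombinant protein at 50, 25 and 12.5 μg/mL (two-fold series), in triplicate. Plates were shaken at 175 rpm, 37° C, and OD600 was read every 30 min. MIC was the lowest concentration with no growth.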

[6] = test system: Citrobacter diversus; experiment: MIC against Gram-negative bacteria: Citrobacter diversus
How it was run: as §1

[7] = test system: Aeromonas hydrophila; experiment: MIC against Gram-negative bacteria: Aeromonas hydrophila
How it was run: as §1

[8] = test system: Proteus vulgaris; experiment: MIC against Gram-negative bacteria: Proteus vulgaris
How it was run: as §1

[9] = test system: Proteus mirabilis; experiment: MIC against Gram-negative bacteria: Proteus mirabilis
How it was run: as §1

[10] = test system: Klebsiella pneumonia; experiment: MIC against Gram-negative bacteria: Klebsiella pneumonia
How it was run: as §1

[11] = test system: Moraxella catarrhalis; experiment: MIC against Gram-negative bacteria: Moraxella catarrhalis
How it was run: as §1

[12] = Enterobacter cloacae, 5×10^5 CFU/mL, 10 h cultivation at 37° C.
[13] = Serratia marcescens, 5×10^5 CFU/mL, 10 h cultivation at 37° C.
[14] = E. coli BL21, 5×10^5 CFU/mL, 10 h cultivation at 37° C.
[15] = Pseudomonas aeruginosa, 5×10^5 CFU/mL, 10 h cultivation at 37° C.
[16] = Citrobacter diversus, 5×10^5 CFU/mL, 10 h cultivation at 37° C.
[17] = Aeromonas hydrophila, 5×10^5 CFU/mL, 10 h cultivation at 37° C.
[18] = Proteus vulgaris, 5×10^5 CFU/mL, 10 h cultivation at 37° C.
[19] = Proteus mirabilis, 5×10^5 CFU/mL, 10 h cultivation at 37° C.
[20] = Klebsiella pneumonia, 5×10^5 CFU/mL, 10 h cultivation at 37° C.
[21] = Moraxella catarrhalis, 5×10^5 CFU/mL, 10 h cultivation at 37° C.
[22] = E. cloacae, 10 h cultivation at 37° C.
[23] = S. marcescens, 10 h cultivation at 37° C.
[24] = E. coli BL21, 10 h cultivation at 37° C.
[25] = P. aeruginosa, 10 h cultivation at 37° C.
[26] = C. diversus, 10 h cultivation at 37° C.
[27] = A. hydrophila, 10 h cultivation at 37° C.
[28] = P. vulgaris, 10 h cultivation at 37° C.
[29] = P. mirabilis, 10 h cultivation at 37° C.
[30] = K. pneumonia, 10 h cultivation at 37° C.
[31] = M. catarrhalis, 10 h cultivation at 37° C.
[32] = 10 h cultivation at 37° C., 5×10^5 CFU/mL, two-fold serial dilution
[33] = 96-well plate, 5×10^5 CFU/mL, 37° C., 10 h
[34] = E. cloacae, 10 h cultivation at 37° C., 5×10^5 CFU/mL
[35] = S. marcescens, 10 h cultivation at 37° C., 5×10^5 CFU/mL
[36] = E. coli BL21, 10 h cultivation at 37° C., 5×10^5 CFU/mL
[37] = P. aeruginosa, 10 h cultivation at 37° C., 5×10^5 CFU/mL
[38] = C. diversus, 10 h cultivation at 37° C., 5×10^5 CFU/mL
[39] = A. hydrophila, 10 h cultivation at 37° C., 5×10^5 CFU/mL
[40] = P. vulgaris, 10 h cultivation at 37° C., 5×10^5 CFU/mL
[41] = P. mirabilis, 10 h cultivation at 37° C., 5×10^5 CFU/mL
[42] = K. pneumonia, 10 h cultivation at 37° C., 5×10^5 CFU/mL
[43] = M. catarrhalis, 10 h cultivation at 37° C., 5×10^5 CFU/mL

PRT1383 (GTRSCPWDCGEGGRCVDGRCVCWPGYTGEDC; listed as Homo sapiens)
50 µg/mL: MIC against S. marcescens [2, 13] | MIC against A. hydrophila [7, 17] | MIC against P. mirabilis [9, 19]
12.5 µg/mL: MIC against E. cloacae [1, 12] | MIC against E. coli BL21 [3, 14] | MIC against P. aeruginosa [4, 15] | MIC [5] | MIC against P. vulgaris [8, 18] | MIC against M. catarrhalis [11, 21]
25 µg/mL: MIC against C. diversus [6, 16] | MIC against K. pneumonia [10, 20]

PRT966 (PSHPCAHEPCSHGICYDAPGGFRCVCEPGWSGPRCS; listed as Homo sapiens)
25 µg/mL: MIC [6, 26] | MIC [8, 28] | MIC [10, 30]
12.5 µg/mL: MIC [1, 22] | MIC [2, 23] | MIC [3, 24] | MIC [11, 31]
50 µg/mL: MIC [4, 25] | MIC [5] | MIC [7, 27] | MIC [9, 29]

PRT973 (DLPDCSPSSCFNGGTCVDGVNSFSCLCRPGYTGAHCQ; listed as Homo sapiens)
12.5 µg/mL: MIC [1, 22] | MIC [2, 23] | MIC [3, 24] | MIC [4, 25] | MIC [5] | MIC [11, 31]
50 µg/mL: MIC [6, 26] | MIC [9, 29] | MIC [10, 30]
25 µg/mL: MIC [7, 27] | MIC [8, 28]

PRT1185 (REFQCDAYTCSNGGTCYDSGDTFRCACPPGWKGSTCA; listed as Homo sapiens)
25 µg/mL: MIC P. aeruginosa [4, 32]
12.5 µg/mL: MIC E. cloacae [1, 32] | MIC S. marcescens [2, 32] | MIC E. coli BL21 [3, 32] | MIC C. diversus [6, 32] | MIC P. mirabilis [9, 32]
50 µg/mL: MIC [5] | MIC A. hydrophila [7, 32] | MIC P. vulgaris [8, 32] | MIC K. pneumonia [10, 32] | MIC M. catarrhalis [11, 32]

PRT680 (DVNECAEGSPCSPGWCENLPGSFRCTCAQGYAPAPDGRSCL; listed as Homo sapiens)
25 µg/mL: MIC E. cloacae [1, 33] | MIC S. marcescens [2, 33] | MIC E. coli BL21 [3, 33] | MIC P. aeruginosa [4, 33] | MIC C. diversus [6, 33]
12.5 µg/mL: MIC [5] | MIC A. hydrophila [7, 33] | MIC P. mirabilis [9, 33]
50 µg/mL: MIC P. vulgaris [8, 33] | MIC K. pneumonia [10, 33] | MIC M. catarrhalis [11, 33]

PRT1323 (DCIECPGGAGSPCNGRGSCAEGMEGNGTCSCQEGFGGTACE; listed as Homo sapiens)
25 µg/mL: MIC against E. coli BL21 ([3]; E. coli BL21, 96-well plate, 5×10^5 CFU/mL, 37° C., 10 h) | MIC against P. mirabilis ([9]; Proteus mirabilis, 96-well plate, 5×10^5 CFU/mL, 37° C., 10 h) | MIC against K. pneumonia ([10]; Klebsiella pneumonia, 96-well plate, 5×10^5 CFU/mL, 37° C., 10 h)
12.5 µg/mL: MIC against E. cloacae ([1]; Enterobacter cloacae, 96-well plate, 5×10^5 CFU/mL, 37° C., 10 h) | MIC against S. marcescens ([2]; Serratia marcescens, 96-well plate, 5×10^5 CFU/mL, 37° C., 10 h) | MIC against P. aeruginosa ([4]; Pseudomonas aeruginosa, 96-well plate, 5×10^5 CFU/mL, 37° C., 10 h) | MIC [5] | MIC against A. hydrophila ([7]; Aeromonas hydrophila, 96-well plate, 5×10^5 CFU/mL, 37° C., 10 h) | MIC against M. catarrhalis ([11]; Moraxella catarrhalis, 96-well plate, 5×10^5 CFU/mL, 37° C., 10 h)
50 µg/mL: MIC against C. diversus ([6]; Citrobacter diversus, 96-well plate, 5×10^5 CFU/mL, 37° C., 10 h) | MIC against P. vulgaris ([8]; Proteus vulgaris, 96-well plate, 5×10^5 CFU/mL, 37° C., 10 h)

PRT1171 (NTNDCSPHPCYNSGTCVDGDNWYRCECAPGFAGPDCR; listed as Homo sapiens)
25 µg/mL: MIC S. marcescens [2, 32] | MIC P. aeruginosa [4, 32]
50 µg/mL: MIC P. vulgaris [8, 32] | MIC M. catarrhalis [11, 32]
12.5 µg/mL: MIC E. cloacae [1, 32] | MIC E. coli BL21 [3, 32] | MIC [5] | MIC C. diversus [6, 32] | MIC A. hydrophila [7, 32] | MIC P. mirabilis [9, 32] | MIC K. pneumonia [10, 32]

PRT443 (DIDECENTDACQHECKNTFGSYQCICPPGYQLTHNGKTCQ; listed as Homo sapiens)
50 µg/mL: MIC [2, 35]
25 µg/mL: MIC [3, 36] | MIC [6, 38] | MIC [9, 41]
12.5 µg/mL: MIC [1, 34] | MIC [4, 37] | MIC [5] | MIC [7, 39] | MIC [8, 40] | MIC [10, 42] | MIC [11, 43]

PRT448 (SFRCQCEPGFQLGPNNRSCVDVNE; listed as Homo sapiens)
100 µg/mL: MIC against P. aeruginosa [4, 33]
25 µg/mL: MIC against C. diversus [6, 33] | MIC against P. mirabilis [9, 33]
50 µg/mL: MIC against E. coli BL21 [3, 33] | MIC against A. hydrophila [7, 33] | MIC against P. vulgaris [8, 33] | MIC against K. pneumonia [10, 33]
12.5 µg/mL: MIC against E. cloacae [1, 33] | MIC against S. marcescens [2, 33] | MIC [5] | MIC against M. catarrhalis [11, 33]

PRT724 (DINECEQFGTCPQHCRNTKGSYECVCADGFTSMSDRPGKRCA; listed as Homo sapiens)
25 µg/mL: MIC E. cloacae [1, 33] | MIC S. marcescens [2, 33] | MIC C. diversus [6, 33] | MIC P. mirabilis [9, 33]
12.5 µg/mL: MIC E. coli BL21 [3, 33] | MIC P. aeruginosa [4, 33] | MIC [5] | MIC A. hydrophila [7, 33] | MIC P. vulgaris [8, 33] | MIC K. pneumonia [10, 33] | MIC M. catarrhalis [11, 33]

PRT212 (DIDECESGAHQCSEAQTCVNFHGGYRCV; listed as Homo sapiens)
50 µg/mL: MIC (μg/mL) E. coli BL21 [3, 36] | MIC (μg/mL) K. pneumonia [10, 42]
25 µg/mL: MIC (μg/mL) A. hydrophila [7, 39] | MIC (μg/mL) M. catarrhalis [11, 43]
12.5 µg/mL: MIC (μg/mL) E. cloacae [1, 34] | MIC (μg/mL) S. marcescens [2, 35] | MIC (μg/mL) P. aeruginosa [4, 37] | MIC [5] | MIC (μg/mL) C. diversus [6, 38] | MIC (μg/mL) P. vulgaris [8, 40] | MIC (μg/mL) P. mirabilis [9, 41]

PRT1484 (DTDECLGTPCQQRCKNSIGSYKCSCRTGFHLHGNRHSCV; listed as Homo sapiens)
12.5 µg/mL: MIC against E. coli BL21 [3, 14] | MIC against P. vulgaris [8, 18] | MIC against K. pneumonia [10, 20] | MIC against M. catarrhalis [11, 21]
50 µg/mL: MIC against S. marcescens [2, 13] | MIC against P. aeruginosa [4, 15] | MIC [5] | MIC against A. hydrophila [7, 17] | MIC against P. mirabilis [9, 19]
25 µg/mL: MIC against E. cloacae [1, 12] | MIC against C. diversus [6, 16]

PRT1441 (EVDECSWPDHGGCEHRCVNTLGSYKCACDPGYELAADKKMCE; listed as Homo sapiens)
100 µg/mL: MIC against C. diversus [6, 16]
25 µg/mL: MIC against E. coli BL21 [3, 14] | MIC [5] | MIC against A. hydrophila [7, 17] | MIC against P. vulgaris [8, 18] | MIC against K. pneumonia [10, 20]
12.5 µg/mL: MIC against E. cloacae [1, 12] | MIC against S. marcescens [2, 13] | MIC against P. aeruginosa [4, 15] | MIC against P. mirabilis [9, 19] | MIC against M. catarrhalis [11, 21]
